Measured values taken from PMC11576293, “New series of 4,6-diaryl pyrimidines: facile synthesis and antiproliferative activity as dual EGFR/VEGFR-2 inhibitors” (Frontiers in Chemistry, 2024).

Key:
EKVX = test: NCI-60 single-dose screen; assay type: cell-based; conditions: Homo sapiens, single dose 10 µM, '-' = no inhibition, read-out: % Growth Inhibition
Description: (§1) The National Cancer Institute’s Developmental Therapeutic Program (www.dtp.nci.nih.gov) has tested compounds 9–29 (except compounds 21 and 22) against 60 cancer cell lines from nine types (leukemia, lung, colon, CNS, melanoma, ovarian, renal, prostate, and breast cancer) at a single dose (10 μM) ([El-Sherief et al., 2018]). […] The most sensitive cells included leukemia (SR, K-562, and MOLT-4), lung (NCI-H522, […], and EKVX), breast (MCF-7 and T-47D), colon (HCT-15 and HT-29), and ovarian (NCI/ADR-RES).
(§2) The National Cancer Institute’s Developmental Therapeutic Program (www.dtp.nci.nih.gov) evaluated compounds 9–29 (excluding 21 and 22) against 60 cancer cell lines from nine categories (leukemia, lung, colon, CNS, melanoma, ovarian, renal, prostate, and breast cancer) at a single dose (10 μM) ([El-Sherief et al., 2018]). See Supplementary Material A1 for more details.

RPMI-8226 = test: NCI-60 single-dose screen; assay type: cell-based; conditions: Homo sapiens, single dose 10 µM, '-' = no inhibition, read-out: % Growth Inhibition
Description: as §1, §2

ACHN 1 = test: NCI-60 single-dose screen; assay type: cell-based; conditions: Homo sapiens, single dose 10 µM, '-' = no inhibition, read-out: % Growth Inhibition
Description: as §1, §2

K-562 = test: NCI-60 single-dose screen; assay type: cell-based; conditions: Homo sapiens, K562, single dose 10 µM, '-' = no inhibition, read-out: % Growth Inhibition
Description: as §1, §2

OVCAR-8 = test: NCI-60 single-dose screen; assay type: cell-based; conditions: Homo sapiens, single dose 10 µM, '-' = no inhibition, read-out: % Growth Inhibition
Description: as §1, §2

OVCAR-3 = test: NCI-60 single-dose screen; assay type: cell-based; conditions: Homo sapiens, single dose 10 µM, '-' = no inhibition, read-out: % Growth Inhibition
Description: as §1, §2

MOLT-4 = test: NCI-60 single-dose screen; assay type: cell-based; conditions: Homo sapiens, single dose 10 µM, '-' = no inhibition, read-out: % Growth Inhibition
Description: as §1, §2

HCC-2998 = test: NCI-60 single-dose screen; assay type: cell-based; conditions: Homo sapiens, single dose 10 µM, '-' = no inhibition, read-out: % Growth Inhibition
Description: as §1, §2

HT29 = test: NCI-60 single-dose screen; assay type: cell-based; conditions: Homo sapiens, HT-29, single dose 10 µM, '-' = no inhibition, read-out: % Growth Inhibition
Description: as §1, §2

SK-MEL-2 = test: NCI-60 single-dose screen; assay type: cell-based; conditions: Homo sapiens, single dose 10 µM, '-' = no inhibition, read-out: % Growth Inhibition
Description: as §1, §2

BT-549 = test: NCI-60 single-dose screen; assay type: cell-based; conditions: Homo sapiens, single dose 10 µM, '-' = no inhibition, read-out: % Growth Inhibition
Description: as §1, §2

SF-539 = test: NCI-60 single-dose screen; assay type: cell-based; conditions: Homo sapiens, single dose 10 µM, '-' = no inhibition, read-out: % Growth Inhibition
Description: as §1, §2

UACC-62 = test: NCI-60 single-dose screen; assay type: cell-based; conditions: Homo sapiens, single dose 10 µM, '-' = no inhibition, read-out: % Growth Inhibition
Description: as §1, §2

IGROV1 = test: NCI-60 single-dose screen; assay type: cell-based; conditions: Homo sapiens, IGROV-1, single dose 10 µM, '-' = no inhibition, read-out: % Growth Inhibition
Description: as §1, §2

SR = test: NCI-60 single-dose screen; assay type: cell-based; conditions: Homo sapiens, single dose 10 µM, '-' = no inhibition, read-out: % Growth Inhibition
Description: as §1, §2

KM12 = test: NCI-60 single-dose screen; assay type: cell-based; conditions: Homo sapiens, single dose 10 µM, '-' = no inhibition, read-out: % Growth Inhibition
Description: as §1, §2

MDA-MB-435 = test: NCI-60 single-dose screen; assay type: cell-based; conditions: Homo sapiens, single dose 10 µM, '-' = no inhibition, read-out: % Growth Inhibition
Description: as §1, §2

NCI-H460 = test: NCI-60 single-dose screen; assay type: cell-based; conditions: Homo sapiens, single dose 10 µM, '-' = no inhibition, read-out: % Growth Inhibition
Description: as §1, §2

NCI-H23 = test: NCI-60 single-dose screen; assay type: cell-based; conditions: Homo sapiens, single dose 10 µM, '-' = no inhibition, read-out: % Growth Inhibition
Description: as §1, §2

SF-268 = test: NCI-60 single-dose screen; assay type: cell-based; conditions: Homo sapiens, single dose 10 µM, '-' = no inhibition, read-out: % Growth Inhibition
Description: as §1, §2

NCI-H522 = test: NCI-60 single-dose screen; assay type: cell-based; conditions: Homo sapiens, single dose 10 µM, '-' = no inhibition, read-out: % Growth Inhibition
Description: as §1, §2

RXF 393 = test: NCI-60 single-dose screen; assay type: cell-based; conditions: Homo sapiens, single dose 10 µM, '-' = no inhibition, read-out: % Growth Inhibition
Description: as §1, §2

A498 = test: NCI-60 single-dose screen; assay type: cell-based; conditions: Homo sapiens, single dose 10 µM, '-' = no inhibition, read-out: % Growth Inhibition
Description: as §1, §2

NCI/ADR-RES = test: NCI-60 single-dose screen; assay type: cell-based; conditions: Homo sapiens, single dose 10 µM, '-' = no inhibition, read-out: % Growth Inhibition
Description: as §1, §2

MDA-MB-468 = test: NCI-60 single-dose screen; assay type: cell-based; conditions: Homo sapiens, single dose 10 µM, '-' = no inhibition, read-out: % Growth Inhibition
Description: as §1, §2

NCI-H322M = test: NCI-60 single-dose screen; assay type: cell-based; conditions: Homo sapiens, single dose 10 µM, '-' = no inhibition, read-out: % Growth Inhibition
Description: as §1, §2

UACC-257 = test: NCI-60 single-dose screen; assay type: cell-based; conditions: Homo sapiens, single dose 10 µM, '-' = no inhibition, read-out: % Growth Inhibition
Description: as §1, §2

DU-145 = test: NCI-60 single-dose screen; assay type: cell-based; conditions: Homo sapiens, single dose 10 µM, '-' = no inhibition, read-out: % Growth Inhibition
Description: as §1, §2

PC-3 = test: NCI-60 single-dose screen; assay type: cell-based; conditions: Homo sapiens, single dose 10 µM, '-' = no inhibition, read-out: % Growth Inhibition
Description: as §1, §2

TK-10 = test: NCI-60 single-dose screen; assay type: cell-based; conditions: Homo sapiens, single dose 10 µM, '-' = no inhibition, read-out: % Growth Inhibition
Description: as §1, §2

SN12C = test: NCI-60 single-dose screen; assay type: cell-based; conditions: Homo sapiens, single dose 10 µM, '-' = no inhibition, read-out: % Growth Inhibition
Description: as §1, §2

LOX IMVI = test: NCI-60 single-dose screen; assay type: cell-based; conditions: Homo sapiens, single dose 10 µM, '-' = no inhibition, read-out: % Growth Inhibition
Description: as §1, §2

M14 = test: NCI-60 single-dose screen; assay type: cell-based; conditions: Homo sapiens, single dose 10 µM, '-' = no inhibition, read-out: % Growth Inhibition
Description: as §1, §2

HL-60(TB) = test: NCI-60 single-dose screen; assay type: cell-based; conditions: Homo sapiens, single dose 10 µM, '-' = no inhibition, read-out: % Growth Inhibition
Description: as §1, §2

SW-620 = test: NCI-60 single-dose screen; assay type: cell-based; conditions: Homo sapiens, single dose 10 µM, '-' = no inhibition, read-out: % Growth Inhibition
Description: as §1, §2

SF-295 = test: NCI-60 single-dose screen; assay type: cell-based; conditions: Homo sapiens, single dose 10 µM, '-' = no inhibition, read-out: % Growth Inhibition
Description: as §1, §2

SNB-19 = test: NCI-60 single-dose screen; assay type: cell-based; conditions: Homo sapiens, single dose 10 µM, '-' = no inhibition, read-out: % Growth Inhibition
Description: as §1, §2

HCT-15 = test: NCI-60 single-dose screen; assay type: cell-based; conditions: Homo sapiens, single dose 10 µM, '-' = no inhibition, read-out: % Growth Inhibition
Description: as §1, §2

CAKI-1 = test: NCI-60 single-dose screen; assay type: cell-based; conditions: Homo sapiens, single dose 10 µM, '-' = no inhibition, read-out: % Growth Inhibition
Description: as §1, §2

SK-OV-3 = test: NCI-60 single-dose screen; assay type: cell-based; conditions: Homo sapiens, single dose 10 µM, '-' = no inhibition, read-out: % Growth Inhibition
Description: as §1, §2

CCRF-CEM = test: NCI-60 single-dose screen; assay type: cell-based; conditions: Homo sapiens, single dose 10 µM, '-' = no inhibition, read-out: % Growth Inhibition
Description: as §1, §2

MCF7 = test: NCI-60 single-dose screen; assay type: cell-based; conditions: Homo sapiens, single dose 10 µM, '-' = no inhibition, read-out: % Growth Inhibition
Description: as §1, §2

SK-MEL-28 = test: NCI-60 single-dose screen; assay type: cell-based; conditions: Homo sapiens, single dose 10 µM, '-' = no inhibition, read-out: % Growth Inhibition
Description: as §1, §2

MALME-3M = test: NCI-60 single-dose screen; assay type: cell-based; conditions: Homo sapiens, single dose 10 µM, '-' = no inhibition, read-out: % Growth Inhibition
Description: as §1, §2

SNB-75 = test: NCI-60 single-dose screen; assay type: cell-based; conditions: Homo sapiens, single dose 10 µM, '-' = no inhibition, read-out: % Growth Inhibition
Description: as §1, §2

UO-31 = test: NCI-60 single-dose screen; assay type: cell-based; conditions: Homo sapiens, single dose 10 µM, '-' = no inhibition, read-out: % Growth Inhibition
Description: as §1, §2

MDA-MB231/ATCC = test: NCI-60 single-dose screen; assay type: cell-based; conditions: Homo sapiens, MDA-MB-231, single dose 10 µM, '-' = no inhibition, read-out: % Growth Inhibition
Description: as §1, §2

With `CCSc1nc(-c2ccc(Cl)cc2)cc(-c2ccc(OC)c(OC)c2)n1` [Compound 24, 4-(4-Chlorophenyl)-2-(ethylthio)-6-(3,4-dimethoxyphenyl)pyrimidine] the inhibition at 10 µM (EKVX) was 20.4%, the inhibition at 10 µM (RPMI-8226) was 26.4% and the inhibition at 10 µM (ACHN 1) was 7.24%. For the same molecule, the inhibition at 10 µM (K-562) was 41.5%, the inhibition at 10 µM (OVCAR-8) was 6.83% and the inhibition at 10 µM (OVCAR-3) was less than 0%. The inhibition at 10 µM (MOLT-4) was 37%, the inhibition at 10 µM (HCC-2998) was 4.44% and the inhibition at 10 µM (HT29) was 28.3%. For the same molecule, the inhibition at 10 µM (SK-MEL-2) was 11.9%, the inhibition at 10 µM (BT-549) was less than 0% and the inhibition at 10 µM (SF-539) was 7.9%. It also gave an inhibition at 10 µM (UACC-62) of less than 0%, an inhibition at 10 µM (IGROV1) of less than 0% and an inhibition at 10 µM (SR) of 39.6%. The inhibition at 10 µM (KM12) was 29.8%, the inhibition at 10 µM (MDA-MB-435) was 19.7% and the inhibition at 10 µM (NCI-H460) was less than 0%. It also gave an inhibition at 10 µM (NCI-H23) of 1.67%, an inhibition at 10 µM (SF-268) of 16.9% and an inhibition at 10 µM (NCI-H522) of 2.36%. The inhibition at 10 µM (RXF 393) was 23.5%, the inhibition at 10 µM (A498) was 1.95% and the inhibition at 10 µM (NCI/ADR-RES) was 17.5%. For the same molecule, the inhibition at 10 µM (MDA-MB-468) was 11.3%, the inhibition at 10 µM (NCI-H322M) was 13.8% and the inhibition at 10 µM (UACC-257) was 13.5%. It also gave an inhibition at 10 µM (DU-145) of 7.4%, an inhibition at 10 µM (PC-3) of 26.4% and an inhibition at 10 µM (TK-10) of less than 0%. For the same molecule, the inhibition at 10 µM (SN12C) was 22.8%, the inhibition at 10 µM (LOX IMVI) was 11.9% and the inhibition at 10 µM (M14) was 3.7%. The inhibition at 10 µM (HL-60(TB)) was 22.8%, the inhibition at 10 µM (SW-620) was 20.9% and the inhibition at 10 µM (SF-295) was 7.88%. It also gave an inhibition at 10 µM (SNB-19) of 3.01%, an inhibition at 10 µM (HCT-15) of 30.7% and an inhibition at 10 µM (CAKI-1) of 27.5%. It also gave an inhibition at 10 µM (SK-OV-3) of less than 0%, an inhibition at 10 µM (CCRF-CEM) of 19.3% and an inhibition at 10 µM (MCF7) of 18.5%. The inhibition at 10 µM (SK-MEL-28) was 5.5%, the inhibition at 10 µM (MALME-3M) was less than 0% and the inhibition at 10 µM (SNB-75) was 6.37%. It also gave an inhibition at 10 µM (UO-31) of 25.8%, an inhibition at 10 µM (MDA-MB231/ATCC) of 16.9% and a melting point of 229 to 231 °C.
